Test [1] deals with experimental autoimmune encephalomyelitis (EAE) mice. Description: Experimental autoimmune encephalomyelitis (EAE) model of multiple sclerosis. The test is classed as in vivo, mouse. Conditions: 6 mg/kg IP, up to 30 days, versus control, p<0.01 (FIG. 9). On the procedure: (§1) Effectiveness of treatment with thymosin β4 was tested in stroke (middle cerebral artery occlusion (MCAo)) rats and in experimental autoimmune encephalomyelitis (EAE) mice (a well-established in vivo model for multiple sclerosis). Both the stroke rats and the EAE mice were treated with 6 mg/kg thymosin β4 intraperitoneally (IP) in a volume of 0.3 mL twenty-four hours after stroke or after the day of immunization in the EAE model and then every three days (6 mg/kg IP) for four additional doses. An equal volume of saline was administered (IP) to a group of both stroke rats and EAE mice as a control. Bromodeoxyuridine (BrdU; 100 mg/kg) was administered (IP) daily for seven days, initiated 24 hours after MCAo to label proliferating cells. Behavioral tests (adhesive removable test and NSS (Neurological Severity Score)) were performed immediately before treatment and at days 1, 7, 14, 21, 28, 35, 42, 49, and 56 days after MCAo and up to 30 days in the EAE mouse model. All rats were sacrificed 56 days after MCAo; EAE mice were sacrificed at 30 days.

Test [2] has as its system stroke (middle cerebral artery occlusion (MCAo)) rats. Description: Embolic middle cerebral artery occlusion (MCAo) stroke model. The test is classed as in vivo, rat. On the procedure:
as §1

[3] abbreviates: embolic stroke rats, 6 mg/kg IP, versus saline control.

thymosin β4: the functional neurological score result in test [1] is “robust improvement”. For the same substance, in test [2] (after MCAo, Bielschowsky and Luxol Fast Blue staining, p<0.05 (FIG. 4)), the “number of myelinated axons” value was “increased”. In addition, in test [2] (after MCAo, p<0.05 (FIG. 8)), the “cellular proliferation (BrdU expression, number of BrdU immunoreactive cells)” value was “also increased”. In test [2] (after MCAo, p<0.05 (FIGS. 5-7)), the “number of oligodendrocyte progenitors and matured oligodendrocytes” value is given as “increased”. For the same substance, in test [2] (beginning at 21 days after stroke onset, 6 mg/kg IP, p<0.05 (FIG. 1-2)), the “functional outcome by behavioral tests (adhesive removal test, NSS)” value is given as “Significant functional improvement”. The “relative increase in BrdU expression in the striatum or myelinated region of the rat brain” value in test [2] (embolic stroke rats, 6 mg/kg IP from 24 h after MCAo, then every three days for four additional doses, versus saline control) is reported as 42%. Besides, in test [2] (setting [3]), the “increase in CNP, a marker of mature oligodendrocytes” value turned out to be 11% and the “increase in NG-2, a marker of immature oligodendrocytes” value amounted to 47%.

Values taken from patent US20120021992A1, “METHODS FOR IMPROVING NEUROLOGICAL OUTCOME AFTER NEURAL INJURY AND NEURODEGENERATIVE DISEASE” (Henry Ford Health System, priority 2009, published 2012).
